For data set [1], the system named is RSV strain A2. Nature of the data set: RSV antiviral assay (Hep2), EC50-Hep2/B1-384. It is filed as cell-based. The settings on record: human respiratory syncytial virus, HEp-2, 96 h; Hep2 cells, 4 days, Cell-Titer Glo.
A short description of data set [2]: in vitro. The class given is cell-based. The settings on record: human. The procedure:
The cytotoxicity of compounds was determined in A549-hACE2 cells in the following manner. Compounds (200 nL) were spotted onto 384-well Grenier plates prior to seeding 5000 A549-hACE2 cells/well in a volume of 40 μL culture medium. The plates were incubated at 37° C. for 48 hours with 5% CO2. On day 2, 40 μL of CellTiter-Glo (Promega) was added and mixed 5 times.

Data set [3] relates to SARS-CoV-2-Nluc viruses. Nature of the data set: microbe, parasite or virus in culture. The class given is cell-based. The settings on record: Severe acute respiratory syndrome coronavirus 2, 48 h; read-out: SARS-CoV2 EC50.
A short description of data set [4]: in vitro. The class given is in vitro ADME, Human. As to conditions: human, s9, pH 7.4. As for the experimental part: (§1) Duplicate aliquots of test compound or positive control substrate (GS-7340) were added to S9 stock diluted with 100 mM phosphate buffered saline, pH 7.4, to obtain a protein concentration of 1.0 mg/mL. The S9 metabolic reactions were initiated by the addition of the substrates to the S9 reaction mixture to a final concentration of 2 μM. At 0, 10, 20, 30, 60 and 120 min, 25 μL aliquots of the reaction mixture were transferred to plates containing 225 μl of IS/Q solution. After quenching, the plates were centrifuged at 3000×g for 30 minutes, and 150 μL aliquots of each supernatant were diluted with 150 μL water. Aliquots (10 μL) of the diluted supernatant were analyzed on a Thermo Q-Exactive mass spectrometer as described below.
(§2) Quantification of test compounds and controls was performed by analyte/internal standard peak area ratio (PAR) values measured on a Thermo Q-Exactive mass spectrometer coupled to a Dionex UltiMate 3000 HPLC with a Leap Technologies HTC PAL autosampler. The column used was a Thermo Hypersil GOLD (1.9 μm particle size, 2.1×50 mm). Mobile phase A consisted of 0.1% (v/v) formic acid in water. Mobile phase B consisted of 0.1% (v/v) formic acid in acetonitrile. Elution of analytes was achieved by a series of linear gradients of acetonitrile in water containing 0.1% (v/v) formic acid. The mass spectrometer was calibrated on a weekly basis and mass tolerance of 5 ppm was used.

Data set [5] has as its system SARS-CoV-2. Also on record: species or system ferrets. As to conditions: in vivo, po.
Data set [6] concerns RSV-Fluc (Respiratory Syncytial virus strain A2 containing the firefly luciferase reporter). Nature of the data set: microbe, parasite or virus in culture. As to conditions: human respiratory syncytial virus, 72 h, NHBE cells, three days. The class given is cell-based.
Data set [7] can be described thus: in vitro. The class given is in vitro ADME. The settings on record: s9, pH 7.4. As for the experimental part:
as §1, with “mM potassium” for “mM”, “phosphate buffer,” for “phosphate buffered saline,”, “of 2.4” for “of 1.0”, “At 2, 12, 25, 45, 65” for “At 0, 10, 20, 30, 60”, “and 90” for “and 120”, “150 μl,” for “150 μL”
as §2

For data set [8], the target named is T1, CES1 (Homo sapiens, UniProt P23141).
T1 construct: purchased
T1 sequence (P23141 18-567): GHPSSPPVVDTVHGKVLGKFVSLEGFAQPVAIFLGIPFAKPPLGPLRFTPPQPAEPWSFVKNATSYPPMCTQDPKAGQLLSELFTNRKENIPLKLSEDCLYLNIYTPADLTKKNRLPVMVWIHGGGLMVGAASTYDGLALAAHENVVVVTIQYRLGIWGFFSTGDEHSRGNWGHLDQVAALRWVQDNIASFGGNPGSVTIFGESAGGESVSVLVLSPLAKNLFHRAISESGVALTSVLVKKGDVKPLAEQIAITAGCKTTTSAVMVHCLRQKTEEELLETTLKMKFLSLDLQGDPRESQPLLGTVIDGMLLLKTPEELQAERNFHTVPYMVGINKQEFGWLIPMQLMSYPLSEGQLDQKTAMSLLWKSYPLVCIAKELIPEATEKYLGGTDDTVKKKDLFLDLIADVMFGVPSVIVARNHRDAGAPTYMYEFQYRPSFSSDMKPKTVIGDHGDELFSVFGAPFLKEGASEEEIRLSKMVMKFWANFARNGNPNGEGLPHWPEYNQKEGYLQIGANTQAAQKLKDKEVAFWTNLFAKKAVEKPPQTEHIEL
Nature of the data set: CES1/2 stability, CES1. The settings on record: CES1 Supersome preparation; Supersome preparations, CES 1.5 mg/ml, 2 μM substrate, pH 7.4, 37° C.; read-out: CES1 T1/2. It is filed as in vitro ADME. The procedure:
(§3) Test compounds or positive control substrates (oseltamivir for CES1 enzymes or procaine for CES2) were incubated with individual Supersome preparations (final CES concentration 1.5 mg/ml) in 0.1 M potassium phosphate buffer (pH 7.4) at 37° C. Substrates were added to a final concentration of 2 μM to initiate the reaction. The final incubation volume was 250 μL. Aliquots were removed after incubation for 0, 10, 30, 60 and 120 min. The reactions were stopped by the addition of IS/Q. Following protein precipitation and centrifugation, 150 μL of supernatant was diluted with an equal volume of water prior to LC-MS analysis. For procaine 150 μL of supernatant was dried down and reconstituted with 250 μL water. All samples were analyzed by LC-MS and the PAR values were used for quantification.

The conditions of data set [9]: male, Sprague-Dawley, rat, in vivo, po, 6 mg/kg.
The target in data set [10] is T2, CES2 (Homo sapiens, UniProt O00748).
T2 construct: purchased
T2 sequence (O00748 27-559): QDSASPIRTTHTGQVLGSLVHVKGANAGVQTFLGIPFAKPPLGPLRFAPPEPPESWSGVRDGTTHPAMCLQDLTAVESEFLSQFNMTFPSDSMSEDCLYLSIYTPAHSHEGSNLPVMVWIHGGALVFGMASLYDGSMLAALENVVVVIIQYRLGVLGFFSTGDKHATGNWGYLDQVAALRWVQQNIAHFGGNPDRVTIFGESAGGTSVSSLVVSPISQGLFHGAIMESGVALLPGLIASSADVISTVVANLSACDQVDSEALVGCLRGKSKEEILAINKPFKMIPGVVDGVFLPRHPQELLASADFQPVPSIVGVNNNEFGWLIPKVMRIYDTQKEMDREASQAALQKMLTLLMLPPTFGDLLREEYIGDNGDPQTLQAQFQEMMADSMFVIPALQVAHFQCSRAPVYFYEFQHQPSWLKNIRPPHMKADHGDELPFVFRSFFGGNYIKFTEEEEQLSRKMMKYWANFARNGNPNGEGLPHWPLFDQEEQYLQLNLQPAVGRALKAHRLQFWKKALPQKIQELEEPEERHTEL
Nature of the data set: CES1/2 stability, CES2. It is filed as in vitro ADME. The settings on record: CES2 Supersome preparation; Supersome preparations, CES 1.5 mg/ml, 2 μM substrate, pH 7.4, 37° C.; read-out: CES2 T1/2. The procedure: as §3

Data set [11] can be described thus: Plasma stability. As to conditions: human.
The format of data set [12] is in vivo, Sprague-Dawley rats. As to conditions: male, Sprague-Dawley, rat, in vivo, po, 12.7 mg/kg. As for the experimental part: β-d-N^4-hydroxycytidine (NHC) was dosed orally by gavage to male Sprague-Dawley rats (n=3) at 10 mg/kg in 3.9% citric acid and 96.1% water, pH 2.8; Molnupiravir at 12.7 mg/kg in 2.5% kolliphor RH 40, 10% polyethylene glycol 300 and 87.5% water, pH 5.3. […]

For data set [13], the system named is SARS-CoV-2 2019-nCoV/USA-WA1/2020. It is filed as in vivo. The settings on record: in vivo.

The values that follow come from patent US11926645B2, “Compounds and methods for treatment of viral infections” (priority 2020, dated 2024).

Like-named read-outs stand apart in the source and are kept apart here.

Usually EC50 stands for the midpoint of the concentration-response curve. What is called CC50 is the concentration giving 50% cytotoxicity. The Cmax is the peak of the concentration-time curve. `CC(C)C(=O)OC[C@H]1O[C@@](C#N)(c2ccc3c(N)ncnn23)[C@H](O)[C@@H]1O` [Compound 15, ((2R,3S,4R,5R)-5-(4-aminopyrrolo[2,1-f][1,2,4]triazin-7-yl)-5-cyano-3,4-dihydroxytetrahydrofuran-2-yl)methyl isobutyrate]: the results for the EC50 in [1], in data set [3] and in [6] were 407 nM, 1030 nM and 588 nM, respectively. This compound showed a CC50 at 48 h in [2] of over 50000 nM. Moreover, the half-life at 2 μM in data set [4] is 69 min; in [7] it was 1.2 min; in [8], 6 min; in data set [10], under 1 min; in data set [11] it was 29 min. The “Change from vehicle, nasal lavage AUC(0-96) PFU/mL” value in [5] (5 mg/kg) is reported as −2.21 log10; in data set [5] (10 mg/kg), −2.50 log10; in [5] (40 mg/kg), −2.80 log10. For the same compound, the “Change from vehicle, nasal lavage AUC(0-96) RNA copies/μL” value in [5] (5 mg/kg) is recorded as −1.33 log10; in [5] (10 mg/kg) it was −1.51 log10; in data set [5] (40 mg/kg), −1.91 log10. In addition, the “Change from vehicle, nasal turbinate terminal PFU/mL” value in data set [5] (5 mg/kg) is recorded as −1.68 log10; in [5] (10 mg/kg), −2.20 log10; in data set [5] (40 mg/kg), −3.79 log10. Besides, the “Change from vehicle, nasal turbinate terminal RNA copies/μL” value is reported as −2.14 log10 in data set [5] (5 mg/kg), −1.79 log10 in data set [5] (10 mg/kg) and −4.01 log10 in data set [5] (40 mg/kg). This compound also yielded a Cmax in data set [9] of 2.1 µM.

As to `CC(C)C(=O)OC[C@H]1O[C@@H](n2ccc(NO)nc2=O)[C@H](O)[C@@H]1O` [Molnupiravir, reference compound], in data set [4], the half-life at 2 μM was over 700 min. In [5] (5 mg/kg), the “Change from vehicle, nasal lavage AUC(0-96) PFU/mL” value is −2.34 log10; the “Change from vehicle, nasal lavage AUC(0-96) RNA copies/μL” value is reported as −0.87 log10; the “Change from vehicle, nasal turbinate terminal PFU/mL” value is on record as −3.79 log10; the “Change from vehicle, nasal turbinate terminal RNA copies/μL” value was −2.68 log10. In [12], the concentration peaked (Cmax) at 4.09 µM, the “NHC AUCinf.” value came out at 8.96 µM·h, the “NHC F % (based on NHC mg-eq dose)” value is on record as 39.1% and the “NHC F % (based on molnupiravir dose)” value was 30.8%. In data set [13], the “Clinical signs versus vehicle animals” value is given as “No significant differences in clinical signs”; the “Shed virus load (nasal lavages) versus vehicle” value was “lower in all treated animals than in the vehicle group”; the “Viral RNA copies in nasal lavages and turbinates versus vehicle” value is “statistically significant mean reduction”; the “Virus burden in the turbinates” value is “reduced burden in the turbinates”. Further, the half-life at 2 μM in data set [8] fell in the range of 30 to 51 min. Moreover, the half-life at 2 μM in data set [10] was 9.8 min. This compound displayed a half-life at 2 μM in data set [11] of 51 min.
